Columns and labels:
CCK-1 receptor = target: T1, CCK-1 receptor (Homo sapiens, UniProt P32238); assay: CCK1 binding assay ([125I]-BH-CCK-8S displacement, CHO-K1 membranes); conditions: membranes of CHO-K1 cells stably transfected with the CCK-1 receptor, 20 pM [125I]-BH-CCK-8S, 0.3 μM PD-134,308 present, 60 min at 21±3° C.; for Ki: read-out: CCK1 pKi (converted)
T1 construct: expressed in transfected cells; host or cells: CHO-K1
T1 sequence (P32238 1-428): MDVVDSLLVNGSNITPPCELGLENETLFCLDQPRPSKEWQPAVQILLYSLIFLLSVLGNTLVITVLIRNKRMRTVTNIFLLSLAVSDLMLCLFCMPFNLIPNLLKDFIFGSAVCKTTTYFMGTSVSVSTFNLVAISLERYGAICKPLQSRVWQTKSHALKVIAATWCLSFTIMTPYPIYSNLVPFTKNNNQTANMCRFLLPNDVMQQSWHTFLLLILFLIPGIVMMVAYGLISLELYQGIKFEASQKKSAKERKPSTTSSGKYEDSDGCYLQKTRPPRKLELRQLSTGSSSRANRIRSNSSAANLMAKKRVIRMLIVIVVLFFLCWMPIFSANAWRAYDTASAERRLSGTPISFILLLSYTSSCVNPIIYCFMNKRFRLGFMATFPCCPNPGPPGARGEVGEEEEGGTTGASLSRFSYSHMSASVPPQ
Outline: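 Membranes from CHO-K1 cells stably expressing CCK-1 incubated 1 h at 21±3° C with 20 pM [125I]-BH-CCK-8S in HEPES buffer pH 7.2 containing 0.3 μM PD-134,308 to block CCK-2. Bound radioactivity read by gamma counting after filtration. pKi derived via Cheng-Prusoff, with specific binding defined using 2-NAP.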

CCK2 receptor = target: T2, CCK2 receptor (Homo sapiens, UniProt P32239); assay: CCK2 binding assay ([125I]-BH-CCK-8S displacement, HEKZFP membranes); conditions: membranes of doxycycline-induced HEKZFP cells, 20 pM [125I]-BH-CCK-8S, 60 min at 21±3° C.; for Ki: read-out: CCK2 pKi (converted)
T2 construct: analyzed for ZFP expression as well as CCK2R induction upon addition of doxycycline to the culture medium; endogenous in cells
T2 sequence (P32239 1-447): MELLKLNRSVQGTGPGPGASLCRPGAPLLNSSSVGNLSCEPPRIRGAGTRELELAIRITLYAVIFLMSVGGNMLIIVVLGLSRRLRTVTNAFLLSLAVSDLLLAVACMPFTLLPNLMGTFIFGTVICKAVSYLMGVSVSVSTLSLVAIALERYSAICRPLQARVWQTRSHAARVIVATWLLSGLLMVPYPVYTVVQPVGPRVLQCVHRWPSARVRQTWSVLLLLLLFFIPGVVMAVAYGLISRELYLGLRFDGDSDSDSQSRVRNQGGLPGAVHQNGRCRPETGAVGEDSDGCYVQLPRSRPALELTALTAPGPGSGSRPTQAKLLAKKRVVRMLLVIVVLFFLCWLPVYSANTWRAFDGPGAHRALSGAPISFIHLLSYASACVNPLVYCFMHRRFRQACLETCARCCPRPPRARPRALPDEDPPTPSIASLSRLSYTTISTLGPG

SMILES | Ki (CCK-1 receptor) [µM] | Ki (CCK2 receptor) [µM] | CCK1 pKi (CCK-1 receptor) | CCK2 pKi (CCK2 receptor)
CC(Cc1ccc(Cl)cc1)NC(=O)c1ccc(Br)cc1NS(=O)(=O)c1cccc2nsnc12 (racemic) [Example 53, (±)-2-(Benzo[1,2,5]thiadiazole-4-sulfonylamino)-4-bromo-N-[2-(4-chloro-phenyl)-1-methyl-ethyl]-benzamide] | 0.126 | 2.51 | – | –
O=C(N[C@@H](Cc1cccc(Br)c1)C(=O)O)c1ccc(I)cc1NS(=O)(=O)c1cccc2nsnc12 [Example 4, (S)-2-[2-(Benzo[1,2,5]thiadiazole-4-sulfonylamino)-4-iodo-benzoylamino]-3-(3-bromo-phenyl)-propionic acid] | 0.631 | 0.00501 | – | –
COC(=O)[C@H](Cc1ccc(Cl)cc1)NC(=O)c1cc(Cl)c(Cl)cc1NS(=O)(=O)c1cccc2nsnc12 [Example 67, (S)-2-[2-(Benzo[1,2,5]thiadiazole-4-sulfonylamino)-4,5-dichloro-benzoylamino]-3-(4-chloro-phenyl)-propionic acid methyl ester] | 0.2 | 0.251 | – | –
O=C(N[C@@H](Cc1ccc(Cl)cc1)C(=O)O)c1ccc(I)cc1NS(=O)(=O)c1cccc2nsnc12 [Example 33, 2-[2-(Benzo[1,2,5]thiadiazole-4-sulfonylamino)-4-iodo-benzoylamino]-3-(4-chloro-phenyl)-propionic acid] | 0.158 | 0.0398 | – | –
O=C(N[C@H](Cc1ccc(Cl)cc1)C(=O)O)c1cc(Cl)c(Cl)cc1NS(=O)(=O)c1cccc2nsnc12 [Example 14, (R)-2-[2-(Benzo[1,2,5]thiadiazole-4-sulfonylamino)-4,5-dichloro-benzoylamino]-3-(4-chloro-phenyl)-propionic acid] | 0.0126 | 0.316 | – | –
C[C@H](c1ccc(Cl)c(Cl)c1)[C@H](NC(=O)c1ccc(Cl)cc1NS(=O)(=O)c1cccc2nsnc12)C(=O)O [Example 56, (2S,3R)-2-[2-(Benzo[1,2,5]thiadiazole-4-sulfonylamino)-4-chloro-benzoylamino]-3-(3,4-dichloro-phenyl)-butyric acid] | – | – | 6.3 | 6.8
CC(CNC(=O)c1cc(Cl)ccc1NS(=O)(=O)c1cccc2nsnc12)c1ccc(Cl)c(Cl)c1 (racemic) [Example 16, (±)-2-(Benzo[1,2,5]thiadiazole-4-sulfonylamino)-5-chloro-N-[2-(3,4-dichloro-phenyl)-propyl]-benzamide] | 0.0631 | 0.631 | – | –
CC(CNC(=O)c1ccc(Br)cc1NS(=O)(=O)c1cccc2nsnc12)c1ccc(Cl)cc1 (stereo not drawn) [Example 21, 2-(Benzo[1,2,5]thiadiazole-4-sulfonylamino)-4-bromo-N-[2-(4-chloro-phenyl)-propyl]-benzamide] | 0.126 | 1 | – | –
CC(CNC(=O)c1ccc(I)cc1NS(=O)(=O)c1c(F)cccc1F)c1ccc(Cl)c(Cl)c1 (stereo not drawn) [Example 42, N-[2-(3,4-Dichloro-phenyl)-propyl]-2-(2,6-difluoro-benzenesulfonylamino)-4-iodo-benzamide] | 0.0316 | 3.16 | – | –

The next lines start with the values.

Ki (CCK-1 receptor) [µM] | Ki (CCK2 receptor) [µM] | CCK1 pKi (CCK-1 receptor) | CCK2 pKi (CCK2 receptor) | SMILES
1.58 | 0.251 | – | – | O=C(N[C@@H](Cc1ccc(Cl)cc1)C(=O)O)c1cc(Cl)ccc1NS(=O)(=O)c1cccc2nsnc12 [Example 83, (S)-2-[2-(Benzo[1,2,5]thiadiazole-4-sulfonylamino)-5-chloro-benzoylamino]-3-(4-chloro-phenyl)-propionic acid]
0.158 | 0.398 | – | – | COC(=O)[C@H](Cc1ccc(Cl)c(Br)c1)NC(=O)c1ccc(I)cc1NS(=O)(=O)c1cccc2nsnc12 [Example 122, (S)-2-[2-(Benzo[1,2,5]thiadiazole-4-sulfonylamino)-4-iodo-benzoylamino]-3-(3-bromo-4-chloro-phenyl)-propionic acid methyl ester]
0.398 | 0.316 | – | – | O=C(N[C@@H](Cc1ccc(Cl)c(Cl)c1)C(=O)NCc1ccc(F)cc1)c1ccc(Cl)cc1NS(=O)(=O)c1cccc2nsnc12 [Example 130, (S)-2-(Benzo[1,2,5]thiadiazole-4-sulfonylamino)-4-chloro-N-[2-(3,4-dichloro-phenyl)-(4-fluoro-benzylcarbamoyl)-ethyl]-benzamide]
0.1 | 0.158 | – | – | COC(=O)[C@H](Cc1ccc(F)c(Br)c1)NC(=O)c1ccc(I)cc1NS(=O)(=O)c1cccc2nsnc12 [Example 123, (S)-2-[2-(Benzo[1,2,5]thiadiazole-4-sulfonylamino)-4-iodo-benzoylamino]-3-(3-bromo-4-fluoro-phenyl)-propionic acid methyl ester]
– | – | 6.7 | 7.4 | O=C(N[C@@H](Cc1ccc(Cl)c(Br)c1)C(=O)O)c1ccc(Cl)cc1NS(=O)(=O)c1cccc2nsnc12 [Example 145, (S)-2-[2-(Benzo[1,2,5]thiadiazole-4-sulfonylamino)-4-chloro-benzoylamino]-3-(3-bromo-4-chloro-phenyl)-propionic acid]
0.251 | 0.0251 | – | – | O=C(N[C@@H](Cc1ccc(Cl)c(Br)c1)C(=O)O)c1ccc(Cl)cc1NS(=O)(=O)c1cccc2nccnc12 [Example 146, (S)-3-(3-Bromo-4-chloro-phenyl)-2-[4-chloro-2-(quinoxaline-5-sulfonylamino)-benzoylamino]-propionic acid]
0.0794 | 0.794 | – | – | C[C@@H](NC(=O)c1ccc(I)cc1NS(=O)(=O)c1cccc2nsnc12)[C@@H](O)c1ccc(Cl)cc1 [Example 99, 2-(Benzo[1,2,5]thiadiazole-4-sulfonylamino)-N-[(2S,1R)-2-(4-chloro-phenyl)-2-hydroxy-1-methyl-ethyl]-4-iodo-benzamide]
0.0398 | 0.794 | – | – | C[C@@H](NC(=O)c1ccc(I)cc1NS(=O)(=O)c1cccc2nsnc12)[C@@H](O)c1cccc(Br)c1 [Example 101, 2-(Benzo[1,2,5]thiadiazole-4-sulfonylamino)-N-[(2S,1R)-2-(3-bromo-phenyl)-2-hydroxy-1-methyl-ethyl]-4-iodo-benzamide]
0.251 | 0.0631 | – | – | O=C(N[C@@H](Cc1ccc(Cl)c(Br)c1)C(=O)O)c1cc(Cl)c(Cl)cc1NS(=O)(=O)c1cccc2nccnc12 [Example 148, (S)-3-(3-Bromo-4-chloro-phenyl)-2-[4,5-dichloro-2-(quinoxaline-5-sulfonylamino)-benzoylamino]-propionic acid]
0.158 | 0.0158 | – | – | O=C(N[C@@H](Cc1ccc(Cl)c(Cl)c1)C(=O)O)c1ccc(Br)cc1NS(=O)(=O)c1cccc2nsnc12 [Example 131, (S)-2-[2-(Benzo[1,2,5]thiadiazole-4-sulfonylamino)-4-bromo-benzoylamino]-3-(3,4-dichloro-phenyl)-propionic acid]
6.31 | 1 | – | – | O=C(N[C@H](C(=O)O)C(c1ccc(Cl)cc1)c1ccc(Cl)cc1)c1ccc(I)cc1NS(=O)(=O)c1cccc2nsnc12 [Example 94, (S)-2-[2-(Benzo[1,2,5]thiadiazole-4-sulfonylamino)-4-iodo-benzoylamino]-3,3-bis-(4-chloro-phenyl)-propionic acid]
3.98 | 0.0316 | – | – | O=C(N[C@@H](Cc1cccc(Cl)c1)C(=O)O)c1ccc(Cl)cc1NS(=O)(=O)c1cccc2nccnc12 [Example 78, (S)-3-(3-Chloro-phenyl)-2-[4-chloro-2-(quinoxaline-5-sulfonylamino)-benzoylamino]-propionic acid]
